Assay results taken from article PMC7525662, “Preclinical dosimetry models and the prediction of clinical doses of novel positron emission tomography radiotracers” (Scientific Reports, 2020).
Marks after values point to notes of the source that are not given here.

Columns and labels:
Design in all cases: species or system Sprague–Dawley rats
[1] = OLINDA/EXM predicted clinical doses: adult female phantom, non-normalised τ, iterative; details: rat, in vivo
Method: (§1) PET studies were reconstructed using filtered-back projection (FBP) and Mediso’s iterative Tera-Tomo 3D reconstruction algorithm with the following settings: 4 iterations, 6 subsets, full detector model, normal regularization, spike filter on, voxel size 0.4 mm and 400‒600 keV energy window. PET data were corrected for randoms, scatter and attenuation. Time-activity curves for each source organ, whole-body and remainder of the body were plotted. […] Residence times (τ) were determined for each radiotracer in source organs, whole-body and remaining (any activity assigned to the whole-body but not assigned to a source organ). Each preclinical source organ’s τ was determined by calculating the area under its respective time-activity curve (activity normalised to the percentage maximum injected dose as a function of time) using the trapezoid method. […] From each individual animal, eight dosimetry models were constructed from all possible combinations of image reconstruction method (FBP or iterative), τ (non-normalised or normalised to human organ masses), and sex of phantom (male or female). Supplementary table 10. Predicted clinical absorbed organ doses and whole-body effective doses of PET radiotracers using non-normalised (preclinical) adult female source organ residence times from iterative reconstructions.

[2] = Residence times normalised to human organ masses, iterative reconstruction; details: rat, in vivo
Method: as §1, with “1. Scaling (normalisation) factors applied to residence times” for “10. Predicted clinical absorbed organ doses and whole-body effective doses”, “in male Sprague-Dawley rats to predict human” for “using non-normalised (preclinical)”, “adult” for “adult female source organ”, “times. […] Stabin et al. 2006 ^4); WB: Whole Body.” for “times from iterative reconstructions.”

[3] = OLINDA/EXM predicted clinical doses: adult female phantom, normalised τ, iterative; details: rat, in vivo
Method: as §1, with “12.” for “10.”, “normalised” for “non-normalised (preclinical)”

[4] = Residence times in rat source organs from whole-body PET, iterative reconstruction; details: in vivo, iv
Method: as §1, with “Immediately after radiotracer administration, a 240 min emission scan using 4 beds (50% overlap) was obtained using 3-dimensional 1:5 mode and re-binned as follows: 7 × 1 min, 2 × 5 min and 4 × 10 min. Throughout the PET/CT scanning session, animal temperature and respiration rate were monitored and controlled. PET studies” for “PET studies”, “and attenuation. […] Then, PMOD’s contours interpolation tool was used to interpolate ROIs for each organ into a corresponding volume-of-interest (VOI). A static cuboidal VOI was also drawn to include the animal whole-body. Time-activity curves” for “and attenuation. Time-activity curves”, “or female).” for “or female). Supplementary table 10. Predicted clinical absorbed organ doses and whole-body effective doses of PET radiotracers using non-normalised (preclinical) adult female source organ residence times from iterative reconstructions.”

Compound: O=C[C@H]([18F])[C@@H](O)[C@H](O)[C@H](O)CO [FDG, 2-deoxy-2-[^18F]fluoro-D-glucose]
- Effective Dose [1]: 7.95E-02 mSv/MBq
- Estimated Absorbed Dose of Organ, Adrenals [1]: 1.20E-02 mGy/MBq
- Estimated Absorbed Dose of Organ, Brain [1]: 6.80E-03 mGy/MBq
- Estimated Absorbed Dose of Organ, Breasts [1]: 7.63E-03 mGy/MBq
- Estimated Absorbed Dose of Organ, Gallbladder Wall [1]: 1.27E-02 mGy/MBq
- Estimated Absorbed Dose of Organ, Heart Wall [1]: 3.36E-02 mGy/MBq
- Estimated Absorbed Dose of Organ, Kidneys [1]: 3.95E-02 mGy/MBq
- Estimated Absorbed Dose of Organ, LLI Wall [1]: 2.13E-01 ‡ mGy/MBq
- Estimated Absorbed Dose of Organ, Liver [1]: 1.20E-02 mGy/MBq
- Estimated Absorbed Dose of Organ, Lungs [1]: 8.85E-03 mGy/MBq
- Estimated Absorbed Dose of Organ, Muscle [1]: 1.42E-02 mGy/MBq
- Estimated Absorbed Dose of Organ, Osteogenic Cells [1]: 1.64E-02 mGy/MBq
- Estimated Absorbed Dose of Organ, Ovaries [1]: 4.21E-02 mGy/MBq
- Estimated Absorbed Dose of Organ, Pancreas [1]: 1.23E-02 mGy/MBq
- Estimated Absorbed Dose of Organ, Red Marrow [1]: 1.35E-02 mGy/MBq
- Estimated Absorbed Dose of Organ, Skin [1]: 8.59E-03 mGy/MBq
- Estimated Absorbed Dose of Organ, Small Intestine [1]: 2.39E-02 mGy/MBq
- Estimated Absorbed Dose of Organ, Spleen [1]: 1.16E-02 mGy/MBq
- Estimated Absorbed Dose of Organ, Stomach Wall [1]: 1.21E-02 mGy/MBq
- Estimated Absorbed Dose of Organ, Thymus [1]: 9.63E-03 mGy/MBq
- Estimated Absorbed Dose of Organ, Thyroid [1]: 8.07E-03 mGy/MBq
- Estimated Absorbed Dose of Organ, ULI Wall [1]: 1.93E-02 mGy/MBq
- Estimated Absorbed Dose of Organ, Urinary Bladder Wall [1]: 7.75E-01 † mGy/MBq
- Estimated Absorbed Dose of Organ, Uterus [1]: 5.40E-02 § mGy/MBq
- Estimated Absorbed Dose, Total Body [1]: 1.49E-02 mGy/MBq
- Normalised Residence Time (h), Average: Remaining [2]: 1.36 h
- Effective Dose [3]: 1.15E-02 mSv/MBq
- Estimated Absorbed Dose of Organ, Brain [3]: 1.19E-02 mGy/MBq
- Estimated Absorbed Dose of Organ, Breasts [3]: 1.84E-02 mGy/MBq
- Estimated Absorbed Dose of Organ, Gallbladder Wall [3]: 8.62E-03 mGy/MBq
- Estimated Absorbed Dose of Organ, Heart Wall [3]: 1.28E-02 mGy/MBq
- Estimated Absorbed Dose of Organ, Kidneys [3]: 9.59E-02 ‡ mGy/MBq
- Estimated Absorbed Dose of Organ, LLI Wall [3]: 1.11E-02 mGy/MBq
- Estimated Absorbed Dose of Organ, Liver [3]: 2.72E-02 mGy/MBq
- Estimated Absorbed Dose of Organ, Lungs [3]: 1.15E-02 mGy/MBq
- Estimated Absorbed Dose of Organ, Muscle [3]: 1.79E-02 mGy/MBq
- Estimated Absorbed Dose of Organ, Osteogenic Cells [3]: 1.02E-02 mGy/MBq
- Estimated Absorbed Dose of Organ, Ovaries [3]: 1.03E-02 mGy/MBq
- Estimated Absorbed Dose of Organ, Pancreas [3]: 1.95E-02 mGy/MBq
- Estimated Absorbed Dose of Organ, Red Marrow [3]: 1.23E-02 mGy/MBq
- Estimated Absorbed Dose of Organ, Skin [3]: 1.51E-02 mGy/MBq
- Estimated Absorbed Dose of Organ, Small Intestine [3]: 8.33E-02 § mGy/MBq
- Estimated Absorbed Dose of Organ, Spleen [3]: 7.40E-03 mGy/MBq
- Estimated Absorbed Dose of Organ, Stomach Wall [3]: 1.38E-02 mGy/MBq
- Estimated Absorbed Dose of Organ, Thymus [3]: 1.10E-02 mGy/MBq
- Estimated Absorbed Dose of Organ, Thyroid [3]: 1.16E-02 mGy/MBq
- Estimated Absorbed Dose of Organ, ULI Wall [3]: 1.15E-02 mGy/MBq
- Estimated Absorbed Dose of Organ, Urinary Bladder Wall [3]: 8.48E-03 mGy/MBq
- Estimated Absorbed Dose of Organ, Uterus [3]: 1.93E-01 † mGy/MBq
- Estimated Absorbed Dose, Total Body [3]: 2.12E-02 mGy/MBq
- Residence Time (h), Average: Brain [4]: 0.0254 h
- Residence Time (h), Average: Heart [4]: 0.0387 h
- Residence Time (h), Average: Intestine [4]: 0.287 h
- Residence Time (h), Average: Kidneys [4]: 0.0499 h
- Residence Time (h), Average: Liver [4]: 0.0417 h
- Residence Time (h), Average: Lungs [4]: 0.0166 h
- Residence Time (h), Average: Remaining [4]: 1.35 h
- Residence Time (h), Average: Urinary Bladder [4]: 1.15 h

Compound: NOTA-RGDfK [existing Al^18F-labelled NOTA-RGDfK peptide PET radiotracer; precursor NOTA-RGDfK (1)]
- Effective Dose [1]: 8.22E-02 mSv/MBq
- Estimated Absorbed Dose of Organ, Adrenals [1]: 9.77E-03 mGy/MBq
- Estimated Absorbed Dose of Organ, Brain [1]: 1.87E-03 mGy/MBq
- Estimated Absorbed Dose of Organ, Breasts [1]: 5.49E-03 mGy/MBq
- Estimated Absorbed Dose of Organ, Gallbladder Wall [1]: 1.07E-02 mGy/MBq
- Estimated Absorbed Dose of Organ, Heart Wall [1]: 7.79E-03 mGy/MBq
- Estimated Absorbed Dose of Organ, Kidneys [1]: 4.85E-02§ mGy/MBq
- Estimated Absorbed Dose of Organ, LLI Wall [1]: 1.68E-01 ‡ mGy/MBq
- Estimated Absorbed Dose of Organ, Liver [1]: 1.06E-02 mGy/MBq
- Estimated Absorbed Dose of Organ, Lungs [1]: 5.19E-03 mGy/MBq
- Estimated Absorbed Dose of Organ, Muscle [1]: 1.30E-02 mGy/MBq
- Estimated Absorbed Dose of Organ, Osteogenic Cells [1]: 1.30E-02 mGy/MBq
- Estimated Absorbed Dose of Organ, Ovaries [1]: 4.12E-02 mGy/MBq
- Estimated Absorbed Dose of Organ, Pancreas [1]: 9.72E-03 mGy/MBq
- Estimated Absorbed Dose of Organ, Red Marrow [1]: 1.18E-02 mGy/MBq
- Estimated Absorbed Dose of Organ, Skin [1]: 7.18E-03 mGy/MBq
- Estimated Absorbed Dose of Organ, Small Intestine [1]: 2.22E-02 mGy/MBq
- Estimated Absorbed Dose of Organ, Spleen [1]: 9.42E-03 mGy/MBq
- Estimated Absorbed Dose of Organ, Stomach Wall [1]: 9.44E-03 mGy/MBq
- Estimated Absorbed Dose of Organ, Thymus [1]: 6.68E-03 mGy/MBq
- Estimated Absorbed Dose of Organ, Thyroid [1]: 5.90E-03 mGy/MBq
- Estimated Absorbed Dose of Organ, ULI Wall [1]: 1.78E-02 mGy/MBq
- Estimated Absorbed Dose of Organ, Urinary Bladder Wall [1]: 9.66E-01 † mGy/MBq
- Estimated Absorbed Dose of Organ, Uterus [1]: 6.04E-02 mGy/MBq
- Estimated Absorbed Dose, Total Body [1]: 1.33E-02 mGy/MBq
- Normalised Residence Time (h), Average: Remaining [2]: 1 h
- Effective Dose [3]: 8.33E-03 mSv/MBq
- Estimated Absorbed Dose of Organ, Brain [3]: 8.66E-03 mGy/MBq
- Estimated Absorbed Dose of Organ, Breasts [3]: 2.91E-03 mGy/MBq
- Estimated Absorbed Dose of Organ, Gallbladder Wall [3]: 5.51E-03 mGy/MBq
- Estimated Absorbed Dose of Organ, Heart Wall [3]: 1.03E-02 mGy/MBq
- Estimated Absorbed Dose of Organ, Kidneys [3]: 1.53E-02 mGy/MBq
- Estimated Absorbed Dose of Organ, LLI Wall [3]: 8.45E-03 mGy/MBq
- Estimated Absorbed Dose of Organ, Liver [3]: 3.23E-02 § mGy/MBq
- Estimated Absorbed Dose of Organ, Lungs [3]: 9.20E-03 mGy/MBq
- Estimated Absorbed Dose of Organ, Muscle [3]: 8.21E-03 mGy/MBq
- Estimated Absorbed Dose of Organ, Osteogenic Cells [3]: 7.60E-03 mGy/MBq
- Estimated Absorbed Dose of Organ, Ovaries [3]: 7.96E-03 mGy/MBq
- Estimated Absorbed Dose of Organ, Pancreas [3]: 1.68E-02 mGy/MBq
- Estimated Absorbed Dose of Organ, Red Marrow [3]: 8.65E-03 mGy/MBq
- Estimated Absorbed Dose of Organ, Skin [3]: 1.09E-02 mGy/MBq
- Estimated Absorbed Dose of Organ, Small Intestine [3]: 6.42E-02 ‡ mGy/MBq
- Estimated Absorbed Dose of Organ, Spleen [3]: 5.48E-03 mGy/MBq
- Estimated Absorbed Dose of Organ, Stomach Wall [3]: 1.13E-02 mGy/MBq
- Estimated Absorbed Dose of Organ, Thymus [3]: 8.11E-03 mGy/MBq
- Estimated Absorbed Dose of Organ, Thyroid [3]: 6.90E-03 mGy/MBq
- Estimated Absorbed Dose of Organ, ULI Wall [3]: 8.02E-03 mGy/MBq
- Estimated Absorbed Dose of Organ, Urinary Bladder Wall [3]: 5.97E-03 mGy/MBq
- Estimated Absorbed Dose of Organ, Uterus [3]: 2.38E-01 † mGy/MBq
- Estimated Absorbed Dose, Total Body [3]: 2.06E-02 mGy/MBq
- Residence Time (h), Average: Brain [4]: 0.00225 h
- Residence Time (h), Average: Heart [4]: 0.00473 h
- Residence Time (h), Average: Intestine [4]: 0.212 h
- Residence Time (h), Average: Kidneys [4]: 0.0652 h
- Residence Time (h), Average: Liver [4]: 0.0391 h
- Residence Time (h), Average: Lungs [4]: 0.00647 h
- Residence Time (h), Average: Remaining [4]: 0.996 h
- Residence Time (h), Average: Urinary Bladder [4]: 1.44 h
